Reference: patent US20050101595A1, “N-containing cycloalkyl-substituted amino-thiazole derivatives and pharmaceutical compositions for inhibiting cell proliferation and methods for their use” (PFIZER INC., priority 2003, published 2005)
Counter-ions that a name gives are not always drawn. Like-named read-outs stand apart in the source and are kept apart here.

Assays:
CDK2/Cyclin A = CDK2/Cyclin A (Homo sapiens, UniProt P24941); assay: Inhibition of CDK2/Cyclin A Retinoblastoma Kinase Activity; format: biochemical; conditions: for Ki: apparent Ki, CDK2/proteolyzed cyclin A, Rb fragment substrate, 25 μM ATP; for CDK2 % Inhibition At 0.03 μM: Table 2
How it was run: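 Radiometric filter-binding readout of phosphate transfer to an Rb substrate fragment by purified CDK2/truncated cyclin A at 10 or 19 nM. Run at pH 7.4 with 25 μM ATP, 30 °C, 60–75 min, linear rates; background without enzyme subtracted, Ki from competitive-inhibition models.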

[1] = target: human CDK4 and genetically truncated (1-264) cyclin D3 (Homo sapiens, UniProt P11802); assay: Inhibition of CDK4/Cyclin D Retinoblastoma Kinase Activity; format: biochemical; conditions: for Ki: apparent Ki, CDK4/truncated cyclin D3, Rb fragment substrate, 25 μM ATP
How it was run: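 Apparent Ki values come from competitive or competitive tight-binding inhibition fits of background-corrected 32P/33P incorporation into His-tagged Rb fragment (386-928), captured on nitrocellulose. Reaction: 5 nM insect-cell-expressed human CDK4 with cyclin D3 (1-264), 25 μM ATP, pH 7.4 HEPES, 2% DMSO, 30° C., 20 min, extended to 60 min for tight-binding inhibitors.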

HCT-116 cell line = assay: Inhibition of cell growth, tetrazolium salt (MTT) assay; format: cell-based; conditions: for IC50: Homo sapiens, HCT-116, 120 h, MTT, three to five days, read-out: HCT-116 IC50; for HCT-116 % Inhibition at 0.25 μM: 0.25 μM compound
How it was run: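 Growth inhibition is scored relative to cells receiving only 0.5% (v/v) DMSO. Plated cells rest 4 h, then take compound for three to five days at 37° C; MTT reduction to formazan is read at 540 nm.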

[2] = 0.1 μM compound, HCT-116, Table 3

Sequence of human CDK4 and genetically truncated (1-264) cyclin D3 (P11802 whole entry, the tested form may be a part): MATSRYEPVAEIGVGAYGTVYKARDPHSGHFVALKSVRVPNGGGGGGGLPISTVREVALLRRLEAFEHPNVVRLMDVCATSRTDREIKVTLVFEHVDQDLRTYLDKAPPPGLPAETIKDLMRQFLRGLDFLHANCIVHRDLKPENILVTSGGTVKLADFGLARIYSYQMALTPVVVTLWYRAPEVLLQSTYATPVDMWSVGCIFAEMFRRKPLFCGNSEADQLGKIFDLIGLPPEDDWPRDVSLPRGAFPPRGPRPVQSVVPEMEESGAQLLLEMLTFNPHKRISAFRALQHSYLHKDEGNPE
Sequence of human CDK4 and genetically truncated (1-264) cyclin D3 (P30281 1-264 partner): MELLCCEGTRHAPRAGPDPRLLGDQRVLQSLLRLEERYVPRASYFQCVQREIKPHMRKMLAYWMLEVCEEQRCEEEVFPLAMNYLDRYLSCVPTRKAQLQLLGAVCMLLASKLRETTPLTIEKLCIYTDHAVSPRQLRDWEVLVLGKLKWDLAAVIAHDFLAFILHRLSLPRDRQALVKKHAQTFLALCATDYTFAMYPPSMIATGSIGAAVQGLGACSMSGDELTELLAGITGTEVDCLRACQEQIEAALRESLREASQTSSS

Ki (CDK2/Cyclin A) [nM]	Ki [1] [nM]	IC50 (HCT-116 cell line; first HCT-116 column (c4)) [nM]	IC50 (HCT-116 cell line; second HCT-116 column (c5)) [nM]	Compound	other results
1.3	0.45	280	600	Nc1nc(NC2CCN(S(=O)(=O)c3ccc(CCCN4CCCC4)nc3)CC2)sc1C(=O)c1c(F)cccc1F [Example I13, 1-(4-Amino-2-{1-[6-(3-pyrrolidin-1-yl-propyl)-pyridine-3-sulfonyl]-piperidin-4-ylamino}-thiazol-5-yl)-1-(2,6-difluoro-phenyl)-methanone Trifluoroacetic Acid Salt]	–
–	–	–	–	Nc1nc(NC2CCN(S(=O)(=O)c3ccc(C(F)(F)F)cc3)CC2)sc1C(=O)c1c(F)cccc1F [Example P33]	CDK2 % Inhibition at 0.03 μM (CDK2/Cyclin A; 0.03 μM compound, Table 3): 56%; CDK4 % Inhibition at 0.03 μM ([1]; 0.03 μM compound, Table 3): 59%; HCT-116 % Inhibition at 0.1 μM (HCT-116 cell line; [2]): 6%; HCT-116 % Inhibition at 0.25 μM (HCT-116 cell line; HCT-116, Table 3): 32%
–	–	–	–	Cc1ccc(NC(=O)N2CCC(Nc3nc(N)c(C(=O)c4c(F)cccc4F)s3)CC2)c(C)c1 [Example O41]	CDK2 % Inhibition At 0.03 μM (CDK2/Cyclin A; 0.03 μM compound): 33%; CDK4 % Inhibition at 0.03 μM ([1]; 0.03 μM compound, Table 2): 1%; HCT-116 % Inhibition at 0.25 μM (HCT-116 cell line; HCT-116, Table 2): 26%
–	–	–	–	Cc1ccc(C(=O)N2CCC(Nc3nc(N)c(C(=O)c4c(F)cccc4F)s3)CC2)c(C)c1 [Example R126]	CDK2 % Inhibition at 0.03 μM (CDK2/Cyclin A; at 0.03 μM): 43%; CDK4 % Inhibition at 0.03 μM ([1]; at 0.03 μM): 57%; HCT-116 % Inhibition at 0.1 μM (HCT-116 cell line; HCT-116 cells, at 0.1 μM): 0%; HCT-116 5 Inhibition at 0.25 μM (HCT-116 cell line; HCT-116 cells, at 0.25 μM): 33
< 1	0.72	2600	> 5000	Nc1nc(NC2CCN(S(=O)(=O)c3ccc(O)nc3)CC2)sc1C(=O)c1c(F)cccc1F [Example H1, 1-{4-Amino-2-[1-(6-hydroxy-pyridine-3-sulfonyl)-piperidin-4-ylamino]-thiazol-5-yl}-1-(2,6-difluoro-phenyl)-methanone Trifluoroacetic Acid Salt]	–
–	–	–	–	Nc1nc(NC2CCN(C(=O)c3ccc(Cl)c(Cl)c3)CC2)sc1C(=O)c1c(F)cccc1F [Example Q20]	CDK2 % Inhibition at 0.03 μM (CDK2/Cyclin A; 0.03 μM compound, Table 4): 33%; CDK4 % Inhibition at 0.03 μM ([1]; 0.03 μM compound, Table 4): 74%; HCT-116 % Inhibition at 0.1 μM (HCT-116 cell line; 0.1 μM compound, HCT-116, Table 4): 28%; HCT-116 % Inhibition at 0.25 μM (HCT-116 cell line; HCT-116, Table 4): 69%
–	–	–	–	Cc1ccc(S(=O)(=O)NC(=O)N2CCC(Nc3nc(N)c(C(=O)c4c(F)cccc4F)s3)CC2)cc1 [Example O25]	CDK2 % Inhibition At 0.03 μM (CDK2/Cyclin A; 0.03 μM compound): 31%; CDK4 % Inhibition at 0.03 μM ([1]; 0.03 μM compound, Table 2): 3%; HCT-116 % Inhibition at 0.25 μM (HCT-116 cell line; HCT-116, Table 2): 27%
2600	460	> 5000	–	CN(C)[C@@H](Cc1ccccc1)C(=O)N1CCC(Nc2nc(N)c(C(=O)c3c(F)cccc3F)s2)CC1 [Example D4, (4-[4-Amino-5-(2,6-difluoro-benzoyl)-thiazol-2-ylamino}-piperidin-1-yl)-2S-dimethylamino-phenyl-propan-1-one]	–
0.66	0.22	210	3000	CC1(C)CN(c2ccc(S(=O)(=O)N3CCC(Nc4nc(N)c(C(=O)c5c(F)cccc5F)s4)CC3)cn2)CCN1 [Example G22, 1-(4-Amino-2-{1-[6-(3,3-dimethyl-piperazin-1-yl)-pyridine-3-sulfonyl]-piperidin-4-ylamino}-thiazol-5-yl)-1-(2,6-difluoro-phenyl)-methanone]	–
3.6	8.1	650	1300	Nc1nc(NC2CCN(S(=O)(=O)CCc3ccccn3)CC2)sc1C(=O)c1c(F)cccc1F [Example F28, 1-{4-Amino-2-[1-(2-pyridin-2-yl-ethanesulfonyl)-piperidin-4-ylamino]-thiazol-5-yl}-1-(2,6-difluoro-phenyl)-methanone]	–
–	–	–	–	Nc1nc(NC2CCN(C(=O)Nc3ccccc3F)CC2)sc1C(=O)c1c(F)cccc1F [Example O5]	CDK2 % Inhibition At 0.03 μM (CDK2/Cyclin A; 0.03 μM compound): 35%; CDK4 % Inhibition at 0.03 μM ([1]; 0.03 μM compound, Table 2): 3%; HCT-116 % Inhibition at 0.25 μM (HCT-116 cell line; HCT-116, Table 2): 31%
< 1	0.18	500	1800	CC1(C)CN=C(c2ccc(S(=O)(=O)N3CCC(Nc4nc(N)c(C(=O)c5c(F)cccc5F)s4)CC3)cc2)N1 [Example J2, 1-(4-Amino-2-{1-[4-(5,5-dimethyl-4,5-dihydro-1H-imidazol-2-yl)-benzenesulfonyl]-piperidin-4-ylamino}-thiazol-5-yl)-1-(2,6-difluoro-phenyl)-methanone]	–
< 1	0.34	590	1600	CN1CCCC1c1ccc(S(=O)(=O)N2CCC(Nc3nc(N)c(C(=O)c4c(F)cccc4F)s3)CC2)cc1 (stereo not shown) [Example F24, 1-[4-Amino-2-{1-[4-(1-methyl-pyrrolidin-2-y)-benzenesulfonyl]-piperidin-4-ylamino}-thiazol-5-yl)-1-(2,6-difluoro-phenyl)-methanone Dihydrochloride]	–
–	–	–	–	CC(C)c1ccc(S(=O)(=O)N2CCC(Nc3nc(N)c(C(=O)c4c(F)cccc4F)s3)CC2)cc1 [Example P31]	CDK2 % Inhibition at 0.03 μM (CDK2/Cyclin A; 0.03 μM compound, Table 3): 40%; CDK4 % Inhibition at 0.03 μM ([1]; 0.03 μM compound, Table 3): 50%; HCT-116 % Inhibition at 0.1 μM (HCT-116 cell line; [2]): 3%; HCT-116 % Inhibition at 0.25 μM (HCT-116 cell line; HCT-116, Table 3): 16%
